The text below walks through data of publication PMC7759402 (Journal of Analytical Methods in Chemistry, 2020).

The subject of series [1] is pancreatic ductal adenocarcinoma xenograft. Particulars: combination therapy of VS-5584 with ERK inhibitor SCH772984; cited from earlier work.
Series [2] in a line: Stability of VS-5584 in rat plasma (QC samples, UPLC-MS/MS). It counts as in vitro ADME. The conditions noted are these: for Stability RE (%): n = 3. The protocol: Quality control (QC) samples were prepared at LLOQ, low, medium, and high concentrations (1.0, 2.0, 200, and 800 ng/mL) separately in the same manner. The IS working solution was prepared in acetonitrile at a concentration of 40 ng/mL.
Stability studies were conducted under a variety of different conditions. The accuracy and precision under the above conditions should be within ±15%.

In the case of `O=C(Nc1ccc2[nH]nc(-c3ccncc3)c2c1)[C@@H]1CCN(CC(=O)N2CCN(c3ccc(-c4ncccn4)cc3)CC2)C1` [SCH772984], the tumor suppression rate in series [1] is recorded as 80%.
For the compound `Cc1nc2c(-c3cnc(N)nc3)nc(N3CCOCC3)nc2n1C(C)C` [VS-5584], the “stability of processed samples (in words)” value in series [2] (4°C in an autosampler for 12 h) is listed as “remained intact”. Besides, the “Stability RE (%)” value in series [2] (processed samples, 4°C in autosampler for 12 h, spiked 2.0 ng/mL) is −8.7%; in series [2] (processed samples, 4°C in autosampler for 12 h, spiked 200 ng/mL), 10.4%; in series [2] (processed samples, 4°C in autosampler for 12 h, spiked 800 ng/mL), 9.9%; in series [2] (rat plasma, 12 h at room temperature, spiked 2.0 ng/mL) it was −7.0%; in series [2] (rat plasma, 12 h at room temperature, spiked 200 ng/mL), 10.7%; in series [2] (rat plasma, 12 h at room temperature, spiked 800 ng/mL), 9.2%. Further, the “Stability RE (%)” value in series [2] (rat plasma, 30 days at −25°C, spiked 2.0 ng/mL) is on record as 9.4%; in series [2] (rat plasma, 30 days at −25°C, spiked 200 ng/mL), −12.2%; in series [2] (rat plasma, 30 days at −25°C, spiked 800 ng/mL) it was −5.7%; in series [2] (rat plasma, three freeze–thaw cycles, spiked 2.0 ng/mL), −6.5%; in series [2] (rat plasma, three freeze–thaw cycles, spiked 200 ng/mL), −6.5%; in series [2] (rat plasma, three freeze–thaw cycles, spiked 800 ng/mL), 7.4%. Moreover, the “stability in rat plasma (in words)” value in series [2] (−25°C for 30 days, room temperature for 12 h, three freeze-thaw cycles) is on record as “stable”.
